# According to patent publication US20210246144A1, “A SET OF MITOCHONDRIA-TARGETED COMPOUNDS” (MITOTECH S.A., priority 2017, published 2021):
# Columns and labels:
# [1] = tested on: mitochondrial membrane potential; experiment: mitochondrial uncoupling (protonophore), decrease of mitochondrial membrane potential; settings: causes decrease in mitochondrial membrane potential and reduction of ROS production by mitochondria
# [2] = tested on: isolated mitochondria or live cultures of human cells; settings: cited from earlier work
# [3] = relative to the antioxidant concentrations; cited from earlier work
# [4] = tested on: isolated mitochondria; settings: cited from earlier work
# [5] = neuroprotective and nephroprotective properties
# Description: (§1) Dibromoalkanes (60, 61) were heated with (triphenyl)phosphine in benzene at 80° C., and the obtained bromoalkyl(triphenyl)phosphonium bromides (62, 63) were reacted with fluorescein in the presence of sodium carbonate. As a result, bromides of {4-[2-(6-hydroxy-3-oxo-3H-xanthen-9-yl)benzoyloxy]butyl}(triphenyl)phosphonium (64) and {10-[2-(6-hydroxy-3-oxo-3H-xanthen-9-yl)benzoyloxy]decyl}(triphenyl)phosphonium (65).
# [6] = fluorescent uncoupler activity
# Description: as §1
compound,measurement,setting,value
"CCCCCCCCCCOC(=O)c1ccccc1-c1c2cc(C)/c(=N/CC)cc-2oc2cc(NCC)c(C)cc12 [Compound 28, decyl 2-[(3E)-6-(ethylamino)-3-(ethylimino)-2,7-dimethyl-3H-xanthen-9-yl]benzoate]",mitochondrial uncoupling (protonophore) activity,[1],soft cationic mitochondrial uncouplers (protonophores)
"CCCCCCCCCCCCOC(=O)c1ccccc1-c1c2cc(C)/c(=N/CC)cc-2oc2cc(NCC)c(C)cc12 [Compound 29, dodecyl 2-[(3E)-6-(ethylamino)-3-(ethylimino)-2,7-dimethyl-3H-xanthen-9-yl]benzoate]",mitochondrial uncoupling (protonophore) activity,[1],soft cationic mitochondrial uncouplers (protonophores)
"COc1ccc2c(CC(=O)OCCCCCCCCCC3=CC(=O)C(C)=C(C)C3=O)c3[n+](cc2c1OC)CCc1cc2c(cc1-3)OCO2 [SkQBerb, 21-(2-{[9-(4,5-dimethyl-3,6-dioxocyclohexa-1,4-dien-1-yl)nonyl]oxy}-2-oxoethyl)-16,17-dimethoxy-5,7-dioxa-13λ^5-azapentacyclo[11.8.0.0^21.0.0^4.8.0^15.20]henicosa-1(21),2,4(8),9,13,15(20),16,18-octaen-13-ylium]",accumulation in isolated mitochondria or live human cells,[2],accumulate in isolated mitochondria or live cultures of human cells
same,prooxidant effect,[3],manifested at significantly higher concentrations
same,inhibition of lipid peroxidation,[4],inhibit lipid peroxidation in isolated mitochondria in nanomolar concentrations
"COc1cc2c(cc1OC)-c1c(CC(=O)OCCCCCCCCCC3=CC(=O)C(C)=C(C)C3=O)c3ccc(OC)c(OC)c3c[n+]1CC2 [SkQPalm, 13-(2-{[9-(4,5-dimethyl-3,6-dioxocyclohexa-1,4-dien-1-yl)nonyl]oxy}-2-oxoethyl)-3,4,10,11-tetramethoxy-7,8-dihydro-6λ^5-azatetraphen-6-ylium]",accumulation in isolated mitochondria or live human cells,[2],accumulate in isolated mitochondria or live cultures of human cells
same,prooxidant effect,[3],manifested at significantly higher concentrations
same,inhibition of lipid peroxidation,[4],inhibit lipid peroxidation in isolated mitochondria in nanomolar concentrations
CC/N=c1/cc2oc3cc(NCC)c(C)cc3c(-c3ccccc3C(=O)OCCCCCCCCCCC3=CC(=O)C(C)=C(C)C3=O)c-2cc1C.Cl [SkQR1],mitochondrial uncoupling (protonophore) activity,[1],soft cationic mitochondrial uncouplers (protonophores)
{4-[2-(6-hydroxy-3-oxo-3H-xanthen-9-yl)benzoyloxy]butyl}(triphenyl)phosphonium [Compound 64],neuroprotective and nephroprotective properties,[5],neuroprotective and nephroprotective properties
same,uncoupler activity,[6],fluorescent uncouplers
{10-[2-(6-hydroxy-3-oxo-3H-xanthen-9-yl)benzoyloxy]decyl}(triphenyl)phosphonium [Compound 65],neuroprotective and nephroprotective properties,[5],neuroprotective and nephroprotective properties
same,uncoupler activity,[6],fluorescent uncouplers
